Reference: US8399495B2, “Talarazole metabolites” (Stiefel Laboratories, Inc., priority 2006, dated 2013)

Assays:
IP-10 = experiment: Suppression of IP-10 production by IFNγ-activated human epidermal keratinocytes; format: cell-based
Description: Talarozole Metabolites for Suppression of IP-10 Production by IFNγ-Activated Human Epidermal Keratinocytes
IP-10, a member of the CXC subfamily of chemokines, attracts T-lymphocytes and natural killer cells. […] In particular, epidermal keratinocytes of psoriatic lesions express elevated levels of IP-10. Suppression of IP-10 expression by activated keratinocytes may represent a novel target for therapeutic intervention of inflammatory skin disorders.

[1] = Pharmacokinetics of radioactivity in plasma after oral 14C-labeled talarozole, mouse; format: in vivo; settings: single oral 5 mg/kg; for AUC0-t: 0-48 h
Description: (§1) Mouse, rat, dog and human were the species used for the safety evaluations of talarozole. More specifically, the disposition of ^14C-labeled talarozole was examined in mice, rats, dogs and humans after oral administration to provide information regarding the absorption, metabolism and excretion of talarozole.
(§2) Male and female CD-1 mice (19-29 g, n=3/sex/timepoint for blood sampling, n=3/sex for mass balance), Sprague Dawley rats (0.205-0.237 kg, n=3/sex/timepoint for blood sampling, n=3/sex for mass balance) and beagle dogs (7-12 kg, n=3) were given a single oral dose of ^14C-labeled talarozole in 20% hydroxyl propyl B-cyclodextrin at 5 mg/kg. Healthy human male volunteers (76.6-107.9 kg, n=5) were dosed with a single oral dose of 4 mg ^14C-labeled rambazole in ethanol. Blood samples were collected at selected timepoints after dosing and plasma was prepared. Urine and feces were collected for 2, 7 and 8 days. For the human study, up to 288 hours post-dose and semen samples were obtained 2 and 4 hours post-dose. Radioactivity in various matrices were measured by liquid scintillation counting (LSC). Select plasma, urine and fecal samples were subjected to metabolite radioprofiling and characterization, and in the human study, semen samples. Metabolite radioprofiling was accomplished using HPLC with fraction collection followed by solid scintillation counting (Packard TopCount—see representative HPLC run data below). Radioactivity peaks were integrated and the percent distribution of individual metabolites in each sample was determined. […] For all species, plasma, urine and fecal samples were pooled across animals and analyzed. Plasma was analyzed at several time-points out to 24 hours. Urine was analyzed over one time-interval (0-24 hours for mouse, 0-48 hours for rat, 0-72 hours for dog, and for in the human study, 0-12, 12-24, 24-48, 0-48 hours. Feces was analyzed over 2-3 time intervals (0-24 and 24-48 hours for mouse and rat; 0-24, 24-48, and 48-72 hours for male dogs; and 24-48, 48-72, and 72-96 hours for female dogs). In the human study, feces were analyzed for 0-48, 48-96, 96-144, 144-192, 192-288, 0-144, 144-288 and 0-288 hours. PK parameters for ^14C-labeled talarozole radioactivity was determined from the mean (mouse and rat) or individual (dog and human) plasma concentration versus time data. PK parameter values were determined by non-compartmental methods using WinNonlin™. • HPLC data for separations described in Example 1: • LC system: Waters 2695 Separations Module • Analytic column: C18 column, 4.6×150 mm, 3 μm • Flow rate: 1.0 mL/min • Mobile phase A: 2% HCOOH in H2O (pH 3.2) • Mobile phase B: CH3CN • Gradient: […]

[2] = Pharmacokinetics of radioactivity in plasma after oral 14C-labeled talarozole, rat; format: in vivo; settings: single oral 5 mg/kg; for AUC0-t: 0-48 h
Description: as §1, §2

[3] = Pharmacokinetics of radioactivity in plasma after oral 14C-labeled talarozole, dog; format: in vivo; settings: single oral 5 mg/kg; for AUC0-t: 0-168 h
Description: as §1, §2

[4] = Pharmacokinetics of radioactivity in plasma after oral 14C-labeled talarozole, human; format: in vivo; settings: male, single oral 4 mg
Description: as §1
Male and female CD-1 mice (19-29 g, n=3/sex/timepoint for blood sampling, n=3/sex for mass balance), Sprague Dawley rats (0.205-0.237 kg, n=3/sex/timepoint for blood sampling, n=3/sex for mass balance) and beagle dogs (7-12 kg, n=3) were given a single oral dose of ^14C-labeled talarozole in 20% hydroxyl propyl B-cyclodextrin at 5 mg/kg. […] Radioactivity in various matrices were measured by liquid scintillation counting (LSC). […] Radioactivity peaks were integrated and the percent distribution of individual metabolites in each sample was determined. […] For all species, plasma, urine and fecal samples were pooled across animals and analyzed. Plasma was analyzed at several time-points out to 24 hours. […] PK parameter values were determined by non-compartmental methods using WinNonlin™. • HPLC data for separations described in Example 1: • LC system: Waters 2695 Separations Module • Analytic column: C18 column, 4.6×150 mm, 3 μm • Flow rate: 1.0 mL/min • Mobile phase A: 2% HCOOH in H2O (pH 3.2) • Mobile phase B: CH3CN • Gradient: […]

[5] = Excretion of radioactivity (mass balance), rat; format: in vivo; settings: 0-168 h, oral 5 mg/kg; for % in Feces (percent of dose recovered, total radioactivity) / % in Urine (percent of dose recovered, total radioactivity): 5 mg/kg
Description: as §1
(§3) Male and female CD-1 mice (19-29 g, n=3/sex/timepoint for blood sampling, n=3/sex for mass balance), Sprague Dawley rats (0.205-0.237 kg, n=3/sex/timepoint for blood sampling, n=3/sex for mass balance) and beagle dogs (7-12 kg, n=3) were given a single oral dose of ^14C-labeled talarozole in 20% hydroxyl propyl B-cyclodextrin at 5 mg/kg. Healthy human male volunteers (76.6-107.9 kg, n=5) were dosed with a single oral dose of 4 mg ^14C-labeled rambazole in ethanol. Blood samples were collected at selected timepoints after dosing and plasma was prepared. Urine and feces were collected for 2, 7 and 8 days. For the human study, up to 288 hours post-dose and semen samples were obtained 2 and 4 hours post-dose. Radioactivity in various matrices were measured by liquid scintillation counting (LSC). Select plasma, urine and fecal samples were subjected to metabolite radioprofiling and characterization, and in the human study, semen samples. Metabolite radioprofiling was accomplished using HPLC with fraction collection followed by solid scintillation counting (Packard TopCount—see representative HPLC run data below). Radioactivity peaks were integrated and the percent distribution of individual metabolites in each sample was determined. Metabolite characterization and identification were accomplished by LC/MS (Finnigan MAT LCQ in positive or negative ESI mode) in conjunction with an appropriate radioactive monitor (RAM). For all species, plasma, urine and fecal samples were pooled across animals and analyzed. Plasma was analyzed at several time-points out to 24 hours. Urine was analyzed over one time-interval (0-24 hours for mouse, 0-48 hours for rat, 0-72 hours for dog, and for in the human study, 0-12, 12-24, 24-48, 0-48 hours. Feces was analyzed over 2-3 time intervals (0-24 and 24-48 hours for mouse and rat; 0-24, 24-48, and 48-72 hours for male dogs; and 24-48, 48-72, and 72-96 hours for female dogs). In the human study, feces were analyzed for 0-48, 48-96, 96-144, 144-192, 192-288, 0-144, 144-288 and 0-288 hours. PK parameters for ^14C-labeled talarozole radioactivity was determined from the mean (mouse and rat) or individual (dog and human) plasma concentration versus time data. PK parameter values were determined by non-compartmental methods using WinNonlin™. • HPLC data for separations described in Example 1: • LC system: Waters 2695 Separations Module • Analytic column: C18 column, 4.6×150 mm, 3 μm • Flow rate: 1.0 mL/min • Mobile phase A: 2% HCOOH in H2O (pH 3.2) • Mobile phase B: CH3CN • Gradient: […]

[6] = Excretion of radioactivity (mass balance), dog; format: in vivo; settings: 0-192 h, oral 5 mg/kg; for % in Urine (percent of dose recovered, total radioactivity) / % in Feces (percent of dose recovered, total radioactivity): 5 mg/kg
Description: as §1, §3

[7] = female, listed as 14C-Talarozole
[8] = female, listed as 14C-labeled talarozole
[9] = male, listed as 14C-labeled talarozole

- AUC0-∞ ([1]; female): 6767 hr-ng equiv/g
- AUC0-t ([1]; female): 6632 hr-ng equiv/g
- AUC0-∞ ([1]; male): 10276 hr-ng equiv/g
- AUC0-t ([1]; male): 10215 hr-ng equiv/g
- AUC0-∞ ([2]; female): 7810 hr-ng equiv/g
- AUC0-t ([2]; female): 7670 hr-ng equiv/g
- AUC0-∞ ([2]; male): 6960 hr-ng equiv/g
- AUC0-t ([2]; male): 6720 hr-ng equiv/g
- AUC0-∞ ([3]; female): 21902 hr-ng equiv/g
- AUC0-t ([3]; female): 21388 hr-ng equiv/g
- AUC0-∞ ([3]; male): 19970 hr-ng equiv/g
- AUC0-t ([3]; male): 19555 hr-ng equiv/g
- AUC0-∞ [4]: 301 hr-ng equiv/g
- AUC0-t ([4]; 0-48 h): 269 hr-ng equiv/g
- % in Cage Rinse (percent of dose recovered) ([5]; female): 3.88%
- Total % Recovered ([5]; female): 95.4%
- % in Feces (percent of dose recovered, total radioactivity) [5, 7]: 77.57 F %
- % in Urine (percent of dose recovered, total radioactivity) [5, 7]: 10.07 F %
- % in Feces (percent of dose recovered, total radioactivity) [5, 8]: 77.5%
- % in Urine (percent of dose recovered, total radioactivity) [5, 8]: 10.1%
- % in Cage Rinse (percent of dose recovered) ([5]; male): 4.01%
- Total % Recovered ([5]; male): 95.2%
- % in Feces (percent of dose recovered, total radioactivity) ([5]; male, listed as 14C-Talarozole): 77.53 M %
- % in Urine (percent of dose recovered, total radioactivity) ([5]; male, listed as 14C-Talarozole): 6.33 M %
- % in Feces (percent of dose recovered, total radioactivity) [5, 9]: 77.5%
- % in Urine (percent of dose recovered, total radioactivity) [5, 9]: 6.3%
- % in Urine (percent of dose recovered, total radioactivity) ([6]; listed as 14C-Talarozole): 4.13 M %
- % in Urine (percent of dose recovered, total radioactivity) ([6]; listed as 14C-labeled talarozole): 4.1%
- % in Cage Rinse (percent of dose recovered) ([6]; female): 0.5%
- Total % Recovered ([6]; female): 92.4%
- % in Feces (percent of dose recovered, total radioactivity) [6, 7]: 89.00 F %
- % in Urine (percent of dose recovered, total radioactivity) [6, 7]: 2.89 F %
- % in Feces (percent of dose recovered, total radioactivity) [6, 8]: 89.0%
- % in Urine (percent of dose recovered, total radioactivity) [6, 8]: 2.9%
- % in Cage Rinse (percent of dose recovered) ([6]; male): 0.8%
- Total % Recovered ([6]; male): 93.6%
- % in Feces (percent of dose recovered, total radioactivity) ([6]; male, listed as 14C-Talarozole): 88.66 M %
SMILES: CCC(CC)[C@H](c1ccc(Nc2nc3ccccc3s2)cc1)n1cncn1 [Talarozole, (R)—N-[4-[2-ethyl-1-(1H-1,2,4-triazole-1-yl)butyl]phenyl]-2-benzothiazolamine]
- IP-10 expression (IP-10): down regulate dose-dependently
